Measured values as given in patent publication US11648254B2 (Kumquat Biosciences Inc., priority 2021, dated 2023).
Like-named read-outs stand apart in the source and are kept apart here.

How the values were obtained:
[1] = test system: NCI-H1975 cells (EGFR T790M L858R); assay: EGFR-SOS cellular inhibition assay (CellTiter-Glo, 3D); format: cell-based; conditions: Homo sapiens
[2] = molecular target: SOS1 (Homo sapiens (Human), UniProt Q07889); assay: Ras-SOS interaction assay (HTRF); format: biochemical
[3] = test system: MIA PaCa-2 cells (K-Ras G12C); assay: Ras-SOS cellular growth inhibition assay (CellTiter-Glo, 3D); format: cell-based; conditions: Homo sapiens
How it was run: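 MIA PaCa-2 cells grown in ultra-low-attachment plates (3D) in DMEM/Ham's F12 with 10% FCS and 2.5% horse serum, treated the day after seeding with a 9-point 3-fold compound series for about 5 days. Viability by CellTiter-Glo luminescence; IC50 from four-parameter fit.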

[4] = In vitro plasma protein binding (PPB); format: in vitro ADME; conditions: percentage of free/unbound compound
[5] = Metabolic (microsomal) stability assay; format: in vitro ADME; conditions: mouse liver microsomes, T1/2; read-out: DMPK-invitro-metabolic Stability (Mouse T1/2)
Description: Example 12: Metabolic (Microsomal) Stability Assay

[6] = test system: ERK phosphorylation (p-ERK 1/2 Thr202/Tyr204) in MIA PaCa-2 or NCI-H1975 cells; assay: ERK phosphorylation assay (AlphaLISA p-ERK 1/2); format: cell-based; conditions: MIA PaCa-2 cells or EGFR mutant NCI-H1975 cells; read-out: IC50 for the inhibition of ERK phosphorylation
Method: MIA PaCa-2 cells (ATCC CRL-1420) expressing K-Ras G12C is grown in DMEM/Ham's F12 medium supplemented with 10% fetal calf serum, glutamine and ˜2.5% horse serum. Alternatively, other cell lines with aberrant Ras signaling output can be utilized. Non-limiting exemplary cell lines include NCI-H358 and H1975. Cells are plated in 96-well plates at a concentration of 40,000 cells/well and allowed to attach for at least 8 hours. Following, diluted solutions of test inhibitor compounds are added to the cell culture. After ˜2 hours of incubation, the medium is removed and lysis buffer from AlphaLISA® SureFire® Ultra™ p-ERK 1/2 (Thr202/Tyr204) assay kit (Perkin Elmer ALSU-PERK-A10K) is added to the cells. The plate is agitated for 10 min at room temperature and 10 μL of the lysate is transferred to a 384-well Optiplate™ (Perkin Elmer) for assay. Thereafter ˜5 μL of Acceptor Mix from the p-ERK AlphaLISA assay kit is added to wells and plate is sealed with adhesive film. The samples are incubated for one hour at room temperature. Following, 5 μL of Donor Mix is added to the wells and plate is re-sealed with adhesive film, and incubated for one hour at room temperature. The plate is then read on a multimode microplate reader (e.g., SPARK©Tecan) equipped with Alpha detection module. The data can be fitted to four-parameter dose-response curve using Prism version 9 (GraphPad) to calculate an IC50 for the inhibition of ERK phosphorylation. […] 355, 332, 366, 216, 264, 356, 266, in an ERK phosphorylation assay utilizing either MIA PaCa-2 cells (ATCC CRL-1420) or EGFR mutant cell line (NCI-H1975 (ATCC CRL-5908)).

[7] = 120 h, NCI-H1975, 3D proliferation, about 5 days, read-out: Bio-Cell-Prolif-3D (H1975 IC50)
[8] = NCI-H1975, EGFR T790M L858R, read-out: IC50 in inhibiting growth of NCI-H1975 cell line
[9] = K-RasG13D utilized, read-out: IC50 inhibition of SOS
[10] = K-RasG13D, read-out: IC50 value against SOS1
[11] = MIA PaCa-2, 120 h, MIA PaCa-2, 3D proliferation, about 5 days, read-out: Bio-Cell-Prolif-3D (MiaPaca2 IC50)
[12] = MIA PaCa-2, MIA PaCa-2, read-out: IC50 in inhibiting MIA PaCa-2 cell growth

SOS1, sequence (Q07889 564-1049): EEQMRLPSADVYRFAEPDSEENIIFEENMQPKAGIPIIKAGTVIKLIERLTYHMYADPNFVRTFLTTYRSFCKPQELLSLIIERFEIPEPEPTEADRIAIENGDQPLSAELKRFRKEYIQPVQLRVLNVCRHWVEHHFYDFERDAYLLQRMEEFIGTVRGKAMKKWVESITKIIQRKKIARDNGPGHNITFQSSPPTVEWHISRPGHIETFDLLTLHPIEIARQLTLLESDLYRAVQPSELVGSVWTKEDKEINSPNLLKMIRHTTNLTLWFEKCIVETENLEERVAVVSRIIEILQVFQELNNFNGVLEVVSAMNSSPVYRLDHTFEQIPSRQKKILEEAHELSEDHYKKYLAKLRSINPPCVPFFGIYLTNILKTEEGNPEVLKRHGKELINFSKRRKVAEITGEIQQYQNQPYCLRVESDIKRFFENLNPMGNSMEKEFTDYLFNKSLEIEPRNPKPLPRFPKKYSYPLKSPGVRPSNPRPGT

Row | SMILES | IC50 [1, 7] [nM] | IC50 [1, 8] [nM] | IC50 [2, 9] [nM] | IC50 [2, 10] [nM] | IC50 [3, 11] [nM] | IC50 [3, 12] [nM] | DMPK-invitro-PPB (Mouse Unbound) [%] [4] [%] | half-life [5] [h] | IC50 [6] [nM]
1 | COc1nc2ncnc(N[C@H](C)c3cccc(C(F)(F)[C@@H](C)O)c3F)c2cc1C1(C#N)CC1 [Compound 329, 1-(4-(((R)-1-(3-((R)-1,1-difluoro-2-hydroxypropyl)-2-fluorophenyl)ethyl)amino)-7-methoxypyrido[2,3-d]pyrimidin-6-yl)cyclopropane-1-carbonitrile] | ≤ 1000 | < 500 | < 100 | < 50 | ≤ 1000 | < 500 | 2.72 | 2 | 
2 | COc1nc2ncnc(N[C@H](C)c3cccc(C(F)(F)[C@@H](C)O)c3)c2cc1C1(C#N)CC1 [Compound 264, 1-(4-(((R)-1-(3-((R)-1,1-difluoro-2-hydroxypropyl)phenyl)ethyl)amino)-7-methoxypyrido[2,3-d]pyrimidin-6-yl)cyclopropane-1-carbonitrile] | ≤ 1000 | < 500 | < 100 | < 50 | ≤ 1000 | < 500 | 4.94 | 0.918 | < 1000
3 | COc1nc2ncnc(N[C@H](C)c3cccc(C(F)(F)C(C)(C)O)c3)c2cc1C1(C#N)CC1 [Compound 355, (R)-1-(4-((1-(3-(1,1-difluoro-2-hydroxy-2-methylpropyl)phenyl)ethyl)amino)-7-methoxypyrido[2,3-d]pyrimidin-6-yl)cyclopropane-1-carbonitrile] | ≤ 1000 | < 500 | < 100 | < 50 | ≤ 1000 | < 500 | 0.89 | > 3.33 | < 1000
4 | COc1nc2ncnc(N[C@H](C)c3cccc(C(F)(F)[C@H](C)O)c3F)c2cc1C1(C#N)CC1 [Compound 327, 1-(4-(((R)-1-(3-((S)-1,1-difluoro-2-hydroxypropyl)-2-fluorophenyl)ethyl)amino)-7-methoxypyrido[2,3-d]pyrimidin-6-yl)cyclopropane-1-carbonitrile] | ≤ 1000 | < 500 | < 100 | < 50 | ≤ 1000 | < 500 | 2.34 | 2.18 | 
5 | COc1nc2ncnc(N[C@H](C)c3cccc(C(F)(F)[C@H](C)O)c3)c2cc1C1(C#N)CC1 [Compound 266, 1-(4-(((R)-1-(3-((S)-1,1-difluoro-2-hydroxypropyl)phenyl)ethyl)amino)-7-methoxypyrido[2,3-d]pyrimidin-6-yl)cyclopropane-1-carbonitrile] | ≤ 1000 | < 500 | < 100 | < 50 | ≤ 1000 | < 500 |  |  | < 1000
6 | C[C@@H](Nc1ncnc2nc(Cl)c(C3(C#N)CC3)cc12)c1cccc(C(F)(F)F)c1F [Compound 354, (R)-1-(7-chloro-4-((1-(2-fluoro-3-(trifluoromethyl)phenyl)ethyl)amino)pyrido[2,3-d]pyrimidin-6-yl)cyclopropane-1-carbonitrile] | ≤ 1000 | < 500 | < 100 |  | ≤ 1000 | < 500 | 0.52 | > 3.33 | 
7 | COc1nc2nc(C)nc(N[C@H](C)c3cccc(C(F)(F)[C@@H](C)O)c3)c2cc1C1(C#N)CC1 [Compound 366, 1-(4-(((R)-1-(3-((R)-1,1-difluoro-2-hydroxypropyl)phenyl)ethyl)amino)-7-methoxy-2-methylpyrido[2,3-d]pyrimidin-6-yl)cyclopropane-1-carbonitrile] | ≤ 1000 | < 500 | < 100 | < 50 | ≤ 1000 | < 500 | 1.32 | 0.428 | < 1000
8 | COc1nc2nc(C)nc(N[C@H](C)c3cccc(C(F)(F)[C@H](C)O)c3)c2cc1C1(C#N)CC1 [Compound 216, 1-(4-(((R)-1-(3-((S)-1,1-difluoro-2-hydroxypropyl)phenyl)ethyl)amino)-7-methoxy-2-methylpyrido[2,3-d]pyrimidin-6-yl)cyclopropane-1-carbonitrile] | ≤ 1000 | < 500 | < 100 | < 50 | ≤ 1000 | < 500 |  |  | < 1000

Other lines, results leading:

Row | IC50 [1, 7] [nM] | IC50 [1, 8] [nM] | IC50 [2, 9] [nM] | IC50 [2, 10] [nM] | IC50 [3, 11] [nM] | IC50 [3, 12] [nM] | DMPK-invitro-PPB (Mouse Unbound) [%] [4] [%] | half-life [5] [h] | IC50 [6] [nM] | SMILES
9 | ≤ 1000 | < 500 | < 100 | < 50 | ≤ 1000 | < 500 | 0.11 | 3.31 |  | COc1nc2nc(C)nc(N[C@H](C)c3cccc(C(F)(F)C(C)(C)O)c3)c2cc1C1(C#N)CC1 [Compound 175, (R)-1-(4-((1-(3-(1,1-difluoro-2-hydroxy-2-methylpropyl)phenyl)ethyl)amino)-7-methoxy-2-methylpyrido[2,3-d]pyrimidin-6-yl)cyclopropane-1-carbonitrile]
10 | ≤ 1000 | < 500 | < 100 | < 50 | ≤ 1000 |  | 0.06 | > 3.33 |  | COc1nc2nc(C)nc(N[C@H](C)c3cccc(C(F)(F)C(C)(C)O)c3F)c2cc1C1(C#N)CC1 [Compound 207, (R)-1-(4-((1-(3-(1,1-difluoro-2-hydroxy-2-methylpropyl)-2-fluorophenyl)ethyl)amino)-7-methoxy-2-methylpyrido[2,3-d]pyrimidin-6-yl)cyclopropane-1-carbonitrile]
11 | ≤ 1000 | < 500 | < 100 | < 50 | ≤ 1000 | < 500 | 0.77 | 0.62 |  | COc1nc2nc(C)nc(N[C@H](C)c3cccc(C(F)(F)[C@H](C)O)c3F)c2cc1C1(C#N)CC1 [Compound 256, 1-(4-(((R)-1-(3-((S)-1,1-difluoro-2-hydroxypropyl)-2-fluorophenyl)ethyl)amino)-7-methoxy-2-methylpyrido[2,3-d]pyrimidin-6-yl)cyclopropane-1-carbonitrile]
12 | ≤ 1000 | < 500 | < 100 | < 50 | ≤ 1000 | < 500 | 0.3 | 0.502 | < 1000 | COc1nc2nc(C)nc(N[C@H](C)c3cccc(C(F)(F)[C@@H](C)O)c3F)c2cc1C1(C#N)CC1 [Compound 332, 1-(4-(((R)-1-(3-((R)-1,1-difluoro-2-hydroxypropyl)-2-fluorophenyl)ethyl)amino)-7-methoxy-2-methylpyrido[2,3-d]pyrimidin-6-yl)cyclopropane-1-carbonitrile]
13 | ≤ 1000 | < 500 | < 100 | < 50 | ≤ 1000 | < 500 | 0.48 | > 3.33 | < 1000 | COc1nc2ncnc(N[C@H](C)c3cccc(C(F)(F)C(C)(C)O)c3F)c2cc1C1(C#N)CC1 [Compound 356, (R)-1-(4-((1-(3-(1,1-difluoro-2-hydroxy-2-methylpropyl)-2-fluorophenyl)ethyl)amino)-7-methoxypyrido[2,3-d]pyrimidin-6-yl)cyclopropane-1-carbonitrile]
14 | ≤ 1000 |  | < 100 |  | ≤ 1000 |  | 0.47 | 1.18 |  | Cc1nc(N[C@H](C)c2cccc(C(F)(F)F)c2F)c2cc(C3(C#N)CC3)c(Cl)nc2n1 [Compound 300, (R)-1-(7-chloro-4-((1-(2-fluoro-3-(trifluoromethyl)phenyl)ethyl)amino)-2-methylpyrido[2,3-d]pyrimidin-6-yl)cyclopropane-1-carbonitrile]
